Reference: publication PMC6294172 (Stem Cell Reports, 2018)
Values belong to the molecule of their own block, whether it stands above or below them.

Experiments:
JAK/STAT signals = conditions: ref Liu et al., 2011; cited from earlier work
hiPS-SIECs monolayer [1] = assay: TEER measurement of hiPS-SIECs monolayer; format: cell-based, human; conditions: 10 mM C10, hiPS-SIECs monolayer
hiPS-SIECs monolayer [2] = assay: LY and FD4 permeability tests across hiPS-SIECs monolayer; conditions: treatment with C10, hiPS-SIECs monolayer
[3] = tested on: human iPSC (Tic)-derived definitive endoderm cells; assay: Intestinal progenitor cell differentiation; format: cell-based; conditions: 4 days
[4] = tested on: human iPSC-derived intestinal progenitor cells; assay: Percentage of CDX2-positive cells by FACS analysis; format: cell-based; conditions: LY2090314-treated cells
[5] = tested on: human iPSC (Tic)-derived definitive endoderm cells; assay: CDX2 protein expression by western blotting; format: cell-based; conditions: 4 days treatment
PEPT1 [6] = target: T1, PEPT1 (Homo sapiens, UniProt P46059); assay: Peptide-uptake analysis of D-Ala-Leu-Lys-AMCA in hiPS-SIECs; format: cell-based; conditions: 100 μM captopril, 25 μM D-Ala-Leu-Lys-AMCA for 4 hr
T1 sequence (P46059 1-708): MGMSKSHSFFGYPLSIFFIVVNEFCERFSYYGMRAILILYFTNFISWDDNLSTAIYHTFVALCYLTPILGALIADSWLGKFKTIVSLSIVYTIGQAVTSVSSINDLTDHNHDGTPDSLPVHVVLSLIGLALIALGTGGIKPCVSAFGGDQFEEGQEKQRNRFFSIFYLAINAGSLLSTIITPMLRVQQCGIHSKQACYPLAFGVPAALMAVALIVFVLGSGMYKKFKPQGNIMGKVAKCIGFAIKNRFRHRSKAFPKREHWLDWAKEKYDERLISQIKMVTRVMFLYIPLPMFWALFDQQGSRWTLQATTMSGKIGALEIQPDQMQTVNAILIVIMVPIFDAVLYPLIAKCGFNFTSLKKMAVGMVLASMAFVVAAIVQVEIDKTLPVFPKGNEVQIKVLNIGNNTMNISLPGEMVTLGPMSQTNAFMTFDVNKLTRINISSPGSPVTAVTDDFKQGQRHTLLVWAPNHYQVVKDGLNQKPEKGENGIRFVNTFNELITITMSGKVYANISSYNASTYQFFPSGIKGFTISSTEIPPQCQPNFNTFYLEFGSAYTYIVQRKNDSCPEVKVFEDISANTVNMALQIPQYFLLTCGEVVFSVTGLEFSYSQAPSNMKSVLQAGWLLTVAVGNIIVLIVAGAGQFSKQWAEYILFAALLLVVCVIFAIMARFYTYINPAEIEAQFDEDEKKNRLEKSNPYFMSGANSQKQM

PEPT1 [7] = target: T1, PEPT1; assay: PEPT1 permeability test with glycylsarcosine across hiPS-SIECs monolayer; format: in vitro ADME; conditions: apical to basolateral, 100 μM captopril
[8] = tested on: neonatal rat small intestinal epithelial cells; conditions: ref Booth et al., 1995; Leeper et al., 1998; McDonald and Henning, 1992; cited from earlier work
CES2 = target: T2, CES2 (Homo sapiens, UniProt O00748); assay: CES2 activity in hiPS-SIECs with fluorescein diacetate substrate; conditions: 1 mM loperamide, 10 μM fluorescein diacetate substrate
T2 sequence (O00748 27-559): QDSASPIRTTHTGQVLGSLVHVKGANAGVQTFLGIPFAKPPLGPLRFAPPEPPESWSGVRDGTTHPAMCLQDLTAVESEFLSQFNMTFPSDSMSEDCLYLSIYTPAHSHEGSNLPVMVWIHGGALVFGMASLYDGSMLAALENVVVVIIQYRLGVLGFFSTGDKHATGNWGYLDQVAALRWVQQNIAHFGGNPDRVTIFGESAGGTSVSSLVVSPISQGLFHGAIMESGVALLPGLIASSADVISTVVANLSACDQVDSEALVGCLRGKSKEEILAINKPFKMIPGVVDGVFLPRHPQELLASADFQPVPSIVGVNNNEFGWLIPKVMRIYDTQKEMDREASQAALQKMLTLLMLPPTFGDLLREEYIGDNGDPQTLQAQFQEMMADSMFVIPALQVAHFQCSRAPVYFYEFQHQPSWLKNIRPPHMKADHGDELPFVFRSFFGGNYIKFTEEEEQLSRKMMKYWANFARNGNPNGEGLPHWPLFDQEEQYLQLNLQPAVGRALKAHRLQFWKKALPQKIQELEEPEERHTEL

[9] = tested on: small intestinal epithelial cells; conditions: ref Booth et al., 1995; Leeper et al., 1998; McDonald and Henning, 1992; cited from earlier work
[10] = 20 nM, compared with definitive endoderm cells (DECs)

Molecule: O=C1Nc2cc(Br)ccc2/C1=C1/Nc2ccccc2/C1=N\O [BIO, (2′Z,3′E)-6-bromoindirubin-3′-oxime]
effect on JAK/STAT signals (off-target) (JAK/STAT signals): inhibition

Molecule: O=C1NC(=O)C(c2cnc3ccccn23)=C1c1cn2c3c(cc(F)cc13)CN(C(=O)N1CCCCC1)CC2 [LY2090314]
expression level of hepatic progenitor marker AFP [3, 10]: lower
expression level of intestinal progenitor cell marker CDX2 [3, 10]: increased
expression level of pancreatic progenitor cell marker PDX1 [3, 10]: lower
expression levels of CDX2, concentration dependence ([3]; 1-20 nM, relative to DMSO-treated cells): increased in a concentration-dependent manner
percentage of CDX2-positive cells (FACS) [4]: approximately 50%
CDX2 protein expression level [5]: increased

Molecule: C[C@H](CS)C(=O)N1CCC[C@H]1C(=O)O [captopril]
uptake of D-Ala-Leu-Lys-AMCA in presence of inhibitor (PEPT1 [6]): inhibited
Papp value of glycylsarcosine (PEPT1 [7]): significantly decreased

Molecule: C[C@@H]1C[C@H]2[C@@H]3CCC4=CC(=O)C=C[C@]4(C)[C@@]3(F)[C@@H](O)C[C@]2(C)[C@@]1(O)C(=O)CO [dexamethasone]
maturation in neonatal rat small intestinal epithelial cells [8]: promotes

Molecule: CN(C)C(=O)C(CCN1CCC(O)(c2ccc(Cl)cc2)CC1)(c1ccccc1)c1ccccc1 [loperamide]
CES2 activity in the hiPS-SIECs (CES2): significantly inhibited

Molecule: IGF-1: insulin-like growth factor 1, used at 20 ng/mL
proliferation of small intestinal epithelial cells [9]: promotes

Now from value to molecule, other results behind:

FD4 apparent membrane permeability coefficient (Papp) (hiPS-SIECs monolayer [2]): increased
LY apparent membrane permeability coefficient (Papp) (hiPS-SIECs monolayer [2]): increased
Molecule: CCCCCCCCCC(=O)O [C10, capric acid]
TEER value (hiPS-SIECs monolayer [1]): significantly decreased

CYP3A4 expression levels (CYP3A4): increased
Molecule: C=C1/C(=C\C=C2/CCC[C@]3(C)[C@@H]([C@H](C)CCCC(C)(C)O)CC[C@@H]23)C[C@@H](O)C[C@@H]1O [VD3, 1α,25-dihydroxyvitamin D3]
